Assay [1] deals with T1, Androgen receptor (Homo sapiens, UniProt P10275).
T1 sequence (P10275 whole entry): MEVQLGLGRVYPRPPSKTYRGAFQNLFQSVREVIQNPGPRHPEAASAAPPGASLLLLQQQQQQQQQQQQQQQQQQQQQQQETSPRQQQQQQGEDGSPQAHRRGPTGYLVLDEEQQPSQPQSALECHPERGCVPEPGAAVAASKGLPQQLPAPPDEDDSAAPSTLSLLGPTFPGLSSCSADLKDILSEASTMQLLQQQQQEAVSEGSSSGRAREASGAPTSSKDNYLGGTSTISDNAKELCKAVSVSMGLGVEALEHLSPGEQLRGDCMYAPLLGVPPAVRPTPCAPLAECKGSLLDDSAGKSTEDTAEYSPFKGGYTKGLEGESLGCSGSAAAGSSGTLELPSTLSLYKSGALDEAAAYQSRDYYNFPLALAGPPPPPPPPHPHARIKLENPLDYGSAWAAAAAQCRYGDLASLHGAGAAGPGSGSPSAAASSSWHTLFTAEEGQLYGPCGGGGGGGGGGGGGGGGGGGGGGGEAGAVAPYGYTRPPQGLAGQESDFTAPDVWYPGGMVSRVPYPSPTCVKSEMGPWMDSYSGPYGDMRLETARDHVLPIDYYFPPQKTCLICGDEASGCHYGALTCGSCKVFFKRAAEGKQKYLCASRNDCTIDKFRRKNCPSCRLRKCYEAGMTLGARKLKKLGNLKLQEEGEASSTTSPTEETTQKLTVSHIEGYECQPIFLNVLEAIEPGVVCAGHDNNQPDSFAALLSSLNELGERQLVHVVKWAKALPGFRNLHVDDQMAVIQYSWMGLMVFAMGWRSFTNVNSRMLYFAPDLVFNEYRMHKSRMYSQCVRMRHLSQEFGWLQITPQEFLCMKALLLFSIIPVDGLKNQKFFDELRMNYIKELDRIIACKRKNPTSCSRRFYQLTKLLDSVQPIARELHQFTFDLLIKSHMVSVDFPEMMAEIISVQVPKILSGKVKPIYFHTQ
Description: Agonist activity to the human androgen receptor (hAR) in CV-1 cells

Assay [2] has as its target T1, Androgen receptor. The source holds these as a separate data set.
Description: Antagonistic activity against human androgen receptor (hAR) in CV-1 cells using cotransfection assay
Assay [3] deals with T1, Androgen receptor. The source holds these as a separate data set.
Description: Binding affinity to the human androgen receptor (hAR), using [3H]DHT as radioligand in a competitive binding assay
Assay [4] concerns the target T1, Androgen receptor. Kind of assay: Antagonistic activity against human androgen receptor (hAR) in CV-1 cells was determined as a function of maximal inhibition of dihydrotestosterone using cotransfection assay. In kind it is functional, cell-based.

At Androgen receptor [1], `CC(C)C[C@H]1c2cc3c(C(F)(F)F)cc(=O)[nH]c3cc2NC[C@@H]1C` (relative stereo) returned a concentration for a half-maximal effect (EC50) of 56 nM. In addition, half-maximal inhibition on Androgen receptor [2] (IC50) was put at 29 nM. In addition, the inhibition constant (Ki) at Androgen receptor [3] was found to be 72 nM.

As to `CC1(C)CCNc2cc3[nH]c(=O)cc(C(F)(F)F)c3cc21`, the EC50 on Androgen receptor [1] was determined as 68 nM. Moreover, the IC50 on Androgen receptor [2] came out at 16 nM. For the same compound, at Androgen receptor [3], the inhibition constant (Ki) was 12 nM.

For the compound `C[C@H]1CNc2cc3nc(O)cc(C(F)(F)F)c3cc2C1CCC(F)(F)F` (stereo partly specified), at Androgen receptor [1], the midpoint of the response, the EC50, lay at 13 nM. Further, the Ki on Androgen receptor [3] was determined as 2 nM. Half-maximal inhibition on Androgen receptor [4] (IC50) was put at 61 nM.

`Oc1cc(C(F)(F)F)c2cc3c(cc2n1)NC[C@H]1CCCC[C@H]31` yielded an EC50 at Androgen receptor [1] of 2 nM. On Androgen receptor [3], this compound came in with an inhibition constant Ki of 15 nM. Also, the IC50 at Androgen receptor [4] is greater than 10000 nM.

`Oc1cc(C(F)(F)F)c2cc3c(cc2n1)NCCC3` displayed a concentration for a half-maximal effect (EC50) on Androgen receptor [1] of 317 nM. The half-inhibitory concentration (IC50) on Androgen receptor [2] is 12 nM. This compound yielded an inhibitory constant (Ki) on Androgen receptor [3] of 19 nM.

On Androgen receptor [1], `CCC1c2cc3c(C(F)(F)F)cc(=O)[nH]c3cc2NC[C@@H]1C` (stereo partly specified) gave a 50% effective concentration (EC50) of 7 nM. Further, on Androgen receptor [2], the IC50 was 2710 nM. For the same compound, the inhibitory constant (Ki) at Androgen receptor [3] was found to be 8 nM.

Consider `CC(C)C1CCNc2cc3[nH]c(=O)cc(C(F)(F)F)c3cc21` (stereo unspecified), for which, on Androgen receptor [1], the EC50 turned out to be 3 nM. The IC50 against Androgen receptor [2] was greater than 10000 nM. The compound further came in with a Ki at Androgen receptor [3] of 13 nM.

`O=c1cc(C(F)(F)F)c2cc3c(cc2[nH]1)NCCC3c1cc(C(F)(F)F)cc(C(F)(F)F)c1` (stereo unspecified) returned a concentration for a half-maximal effect (EC50) on Androgen receptor [1] greater than 10000 nM. For the same compound, half-maximal inhibition against Androgen receptor [2] (IC50) required 251 nM. In addition, on Androgen receptor [3], the Ki was greater than 1000 nM.

On to `CCCC1CCNc2cc3nc(O)cc(C(F)(F)F)c3cc21` (stereo unspecified), for which the EC50 at Androgen receptor [1] is 19 nM. On Androgen receptor [2], this compound showed an IC50 greater than 10000 nM. The same compound had an inhibition constant (Ki) at Androgen receptor [3] of 29 nM.

Compound `CC1c2cc3c(C(F)(F)F)cc(O)nc3cc2NC[C@@H]1C` (stereo partly specified) came in with an EC50 at Androgen receptor [1] of 10 nM. The Ki at Androgen receptor [3] stood at 16 nM. In addition, on Androgen receptor [4], the concentration for half-maximal inhibition (IC50) is greater than 10000 nM.

As for `CCC1CCN(C)c2cc3[nH]c(=O)cc(C(F)(F)F)c3cc21` (stereo unspecified), the response at Androgen receptor [1] was half-maximal at 158 nM (EC50). The IC50 at Androgen receptor [2] is greater than 10000 nM. The compound also gave a Ki on Androgen receptor [3] of 630 nM.

In the case of `O=c1cc(C(F)(F)F)c2cc3c(cc2[nH]1)NC[C@@H]1CCC[C@H]31`, the 50% effective concentration (EC50) on Androgen receptor [1] was 9 nM. For the same compound, the IC50 on Androgen receptor [2] was greater than 10000 nM. Further, the inhibition constant (Ki) on Androgen receptor [3] was found to be 8 nM.

`C[C@@H]1CNc2cc3[nH]c(=O)cc(C(F)(F)F)c3cc2[C@@H]1CCC(F)(F)F` had an EC50 on Androgen receptor [1] of 82 nM. At Androgen receptor [2], this compound returned an IC50 of 63 nM. Moreover, the inhibition constant Ki at Androgen receptor [3] is greater than 1000 nM.

Regarding `CC(C)CC1CCNc2cc3nc(O)cc(C(F)(F)F)c3cc21` (stereo unspecified), on Androgen receptor [1], it took 25 nM to reach a half-maximal effect (EC50). In addition, at Androgen receptor [3], the inhibition constant (Ki) turned out to be 22 nM. The IC50 on Androgen receptor [4] is greater than 10000 nM.

In turn, `Oc1cc(C(F)(F)F)c2cc3c(cc2n1)NC[C@@H]1CCCC[C@H]31` had a half-maximal effective concentration (EC50) at Androgen receptor [1] of 3 nM. The compound also came in with a half-maximal inhibitory concentration (IC50) against Androgen receptor [2] greater than 10000 nM. Further, the affinity at Androgen receptor [3] corresponds to a Ki of 2 nM.

Compound `CCC1(CC)CCNc2cc3nc(O)cc(C(F)(F)F)c3cc21` came in with an EC50 at Androgen receptor [1] greater than 10000 nM. Besides, half-maximal inhibition at Androgen receptor [2] (IC50) required 73 nM. For the same compound, on Androgen receptor [3], the Ki is 58 nM.

On Androgen receptor [1], `CCC1CCN(C)c2cc3c(cc21)c(C(F)(F)F)cc(=O)n3C` (stereo unspecified) registered an EC50 greater than 10000 nM. The half-maximal inhibitory concentration (IC50) at Androgen receptor [2] worked out at 216 nM. At Androgen receptor [3], this compound displayed an inhibitory constant (Ki) of 263 nM.

Compound `CCC1CCNc2cc3c(cc21)c(C(F)(F)F)cc(=O)n3C` (stereo unspecified) registered an EC50 on Androgen receptor [1] greater than 10000 nM. Moreover, 20 nM corresponded to half-maximal inhibition against Androgen receptor [2] (IC50). At Androgen receptor [3], this compound showed a Ki of 9 nM.

In turn, `CC[C@H]1c2cc3c(C(F)(F)F)cc(=O)[nH]c3cc2NC[C@H]1C` (relative stereo) gave a half-maximal effective concentration (EC50) at Androgen receptor [1] of 7 nM. Further, at Androgen receptor [3], affinity was put at a Ki of 27 nM. The compound further gave a half-maximal inhibitory concentration (IC50) at Androgen receptor [4] greater than 10000 nM.

On to `CC1CCNc2cc3nc(O)cc(C(F)(F)F)c3cc21` (stereo unspecified), for which the half-maximal effective concentration (EC50) on Androgen receptor [1] is 15 nM. The IC50 against Androgen receptor [2] was 259 nM. The affinity at Androgen receptor [3], expressed as Ki, was 9 nM.

On Androgen receptor [1], `CCC1CCN(C=O)c2cc3nc(O)cc(C(F)(F)F)c3cc21` (stereo unspecified) had an EC50 of 137 nM. The compound also had a Ki at Androgen receptor [3] greater than 1000 nM. The compound further registered an IC50 against Androgen receptor [4] greater than 10000 nM.

In turn, `CC1c2cc3c(C(F)(F)F)cc(O)nc3cc2NC[C@H]1C` (stereo partly specified) registered a concentration for a half-maximal effect (EC50) on Androgen receptor [1] of 22 nM. In addition, the Ki on Androgen receptor [3] turned out to be 8 nM. This compound also showed a half-maximal inhibitory concentration (IC50) at Androgen receptor [4] greater than 10000 nM.

Usually EC50 stands for the concentration needed to bring the measured effect to its halfway point. Broadly, the IC50 is the concentration at which inhibition is half-maximal. Broadly, the Ki is the equilibrium dissociation constant of an inhibitor or competing ligand from its target. A higher Ki goes with a looser hold on the target.

For the origin of these results see ChEMBL document CHEMBL1132051, “4-Alkyl- and 3,4-dialkyl-1,2,3,4-tetrahydro-8-pyridono[5,6-g]quinolines: potent, nonsteroidal androgen receptor agonists” (Bioorg Med Chem Lett, 1999).
